Legend:
[1] = tested on: E. coli cells; details: total analysis time 2.5 hours; cited from earlier work
[2] = target: botulinum toxoid A (Clostridium botulinum, UniProt P0DPI0); type: binding
[3] = tested on: Salmonella; type: binding
[4] = tested on: E. coli lipopolysaccharide (LPS); details: 5-minute competitive assays; cited from earlier work
[5] = tested on: E. coli lipopolysaccharide (LPS); test: Fiber optic biosensor 5-minute competitive assay with polymyxin B as capture molecule (James et al.); type: binding; details: assuming LPS monomer 4-20 kDa and 1.2×10^6 LPS molecules per cell
[6] = tested on: heat-killed E. coli O157:H7 cells; test: Array Biosensor direct assay: Cy5-labeled cells binding to immobilized magainin; details: magainin I covalently (directly) immobilized via GMBS
[7] = tested on: Bacillus sp.; test: Array Biosensor binding to directly immobilized magainin; details: analogous conditions
[8] = tested on: Campylobacter sp.; test: as above; details: analogous conditions
[9] = tested on: heat-killed S. typhimurium cells; test: Array Biosensor direct assay: Cy5-labeled cells binding to immobilized magainin
[10] = tested on: E. coli; type: binding

Sequence of botulinum toxoid A (P0DPI0 whole entry, looked up): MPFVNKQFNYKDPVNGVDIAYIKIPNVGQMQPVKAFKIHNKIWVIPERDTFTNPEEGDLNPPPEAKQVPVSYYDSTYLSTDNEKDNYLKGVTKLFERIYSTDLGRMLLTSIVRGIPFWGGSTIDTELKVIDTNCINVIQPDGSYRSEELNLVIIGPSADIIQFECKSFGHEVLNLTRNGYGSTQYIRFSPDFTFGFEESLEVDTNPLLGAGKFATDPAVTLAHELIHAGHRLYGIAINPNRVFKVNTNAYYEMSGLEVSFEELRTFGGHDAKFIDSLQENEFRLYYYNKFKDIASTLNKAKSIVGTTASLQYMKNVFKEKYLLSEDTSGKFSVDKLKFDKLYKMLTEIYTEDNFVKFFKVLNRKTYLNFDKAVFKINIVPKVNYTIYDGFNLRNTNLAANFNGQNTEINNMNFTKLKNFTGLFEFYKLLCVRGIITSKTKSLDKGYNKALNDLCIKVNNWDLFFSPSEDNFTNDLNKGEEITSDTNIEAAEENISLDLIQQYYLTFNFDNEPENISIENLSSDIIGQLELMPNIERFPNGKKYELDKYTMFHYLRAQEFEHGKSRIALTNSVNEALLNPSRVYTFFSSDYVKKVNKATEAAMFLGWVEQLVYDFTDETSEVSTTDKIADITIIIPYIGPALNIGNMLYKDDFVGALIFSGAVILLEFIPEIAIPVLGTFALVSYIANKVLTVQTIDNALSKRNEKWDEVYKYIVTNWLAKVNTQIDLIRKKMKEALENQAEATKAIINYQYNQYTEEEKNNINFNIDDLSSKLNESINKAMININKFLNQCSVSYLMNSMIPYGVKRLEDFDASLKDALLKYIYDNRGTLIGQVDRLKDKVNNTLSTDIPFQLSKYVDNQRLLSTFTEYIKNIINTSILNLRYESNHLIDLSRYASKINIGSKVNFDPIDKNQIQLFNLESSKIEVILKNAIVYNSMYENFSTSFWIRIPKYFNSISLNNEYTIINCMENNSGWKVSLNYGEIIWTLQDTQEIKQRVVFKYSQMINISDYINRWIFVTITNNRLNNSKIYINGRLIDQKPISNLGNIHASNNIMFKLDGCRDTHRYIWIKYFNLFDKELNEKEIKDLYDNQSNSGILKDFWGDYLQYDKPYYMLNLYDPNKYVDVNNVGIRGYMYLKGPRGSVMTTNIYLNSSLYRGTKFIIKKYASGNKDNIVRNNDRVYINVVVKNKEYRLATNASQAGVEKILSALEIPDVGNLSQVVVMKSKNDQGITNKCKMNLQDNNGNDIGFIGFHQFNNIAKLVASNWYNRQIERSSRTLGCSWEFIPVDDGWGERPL

Cecropin P1 (SWLSKTAKKLENSAKKRISEGIAIAIQGGPR; Cecropin-P1; UniProt P14661 14-44, looked up)
Detection limit for E. coli [1]: ~10^7 cfu/mL

Polymyxin B
Binding of botulinum toxoid to immobilized capture species [2]: less strongly | LOD for Salmonella [3]: 10^5 cfu/ml | Detection limit for E. coli LPS [4]: approx. 10 ng/mL | Detection limit calculated as number of bacteria per mL [5]: 3×10^5-1.3×10^6 cells/mL

Magainin I (GIGKFLHSAGKFGKAFVGEIMKS; listed as Xenopus laevis)
Binding of botulinum toxoid to immobilized capture species [2]: not | Detection limit for labelled E. coli [6]: 1.6×10^5 cell/mL | Binding of Bacillus sp. [7]: only trace binding | Binding of Campylobacter sp. [8]: only trace binding | Detection limit for labelled S. typhimurium ([9]; magainin I covalently (directly) immobilized via GMBS, Cy5-labeled heat-killed cells): 6.5×10^4 cell/mL | Concentration in solution during immobilization step at which bacterial binding saturated ([9]; patterning solution, target bacteria): 0.4 mM

Bactenecin
LOD for E. coli [10]: 10^2-10^3 cfu/ml

Cecropin A (KWKLFKKIEKVGQNIRDGIIKAGPAVAVVGQATQIAK)
Binding of botulinum toxoid to immobilized capture species [2]: bound | Estimated limit of detection compared with antibody-based assays [2]: significantly lower | Preferential binding, toxoid A versus toxoid B [2]: bound preferentially by toxoid A

Reference: patent US8945856B2, “Affinity-based detection of biological targets” (priority 2005, dated 2015)
